How the values were obtained:
[1] = system: Tetrahydrocannabinol Antibody; experiment: ^125 I THC radioimmunoassay response curve, anion exchange resin separation; assay type: binding, rabbit; settings: resin reagent
[2] = Urine THC levels as a function of time after smoking known dosages; settings: THC 2.5 mg smoked
[3] = experiments with humans; cited from earlier work
[4] = system: Tetrahydrocannabinol Antibody; experiment: ^125 I THC radioimmunoassay response curve, dextran-coated charcoal separation; assay type: binding, rabbit
[5] = system: antiserum; experiment: Binding of iodinated antigen to THC antiserum; set-up: species or system rabbit
Method: A total of 50 μl of a solution of […] of (6aR-trans)-N-[2-(4-hydroxyphenyl)ethyl]-4-(6a,7,8,10a-Tetrahydro-6,6,9-trimethyl-3-pentyl-6H-dibenzo[b,d]pyran-1-oxy)butanamide in 1 ml of 100% alcohol was added to a vial containing 5 mCi of Na^125 I having a radioactive concentration of >100 mCi/ml. To this mixture was then added a total of 40 μl of chloramine T solution (5 mg/ml in 75% EtOH; 25% Borate buffer 0.1 M, pH 8.4). The reaction mixture was mixed for 180 seconds. After mixing, a total of 40 μl of a 1% solution of sodium meta bisulfite (75% EtOH, 25% Tris buffer 0.1 M, pH 7.0) was added to the reaction vial, and the vial contents were mixed for 30 seconds to stop the reaction.
The mixture was removed from the vial and placed on the surface of a Bio-Gel P-2 column (1.5×40 cm, 100-200 mesh) until completely absorbed on the column bed. Approximately 200 ml of 60% Tris -40% EtOH were added, and 100×1-2 ml fractions were collected. The eluate contained the above-captioned, labeled antigen.
After selection of the appropriate fractions (≥50% binding), the fractions were pooled and diluted 1:50 in 0.01 M phosphate buffered saline (PBS) containing 25% ethanol with 0.1% sodium azide and 0.002-0.007% butylated hydroxy toluene (BHT) as preservatives.
[…]. Multiple iodinations were performed on Δ^9 -tetrahydrocannabinol,and the radioisotopically-labeled reagent was used as the ^125 I-labeled antigen. The elution patterns varied considerably. In general, there were numerous small peaks in the elution patterns of most of the iodination products with the percent binding being lower than 50%. On occasion, there were two major peaks with insufficient binding (<50%) in either peak.
. Subsequent injections were made at four-week intervals with immunogen in Freund's incomplete adjuvant. Bleedings, obtained by venipuncture from immunized rabbits, were allowed to stand at 2°-8° C. temperature until the clot had formed. The serum was decanted and stored at from -20° to 5° C.

CCCCCc1cc(O)c2c(c1)OC(C)(C)[C@@H]1CCC(C)=C[C@@H]21 [THC, Δ-9-tetrahydrocannabinol]
DPM ([1]; 12.5 ng/ml THC): 31096 DPM | DPM ([1]; 25 ng/ml THC): 29212 DPM | DPM ([1]; 50 ng/ml THC): 27945 DPM | DPM ([1]; 100 ng/ml THC): 26333 DPM | DPM ([1]; 200 ng/ml THC): 25651 DPM | Tetrahydrocannabinol Concentration in urine ([2]; subject 1 (smoked marijuana prior to study), sodium azide added, 0 h): 10.0 ng THC E/ml | Tetrahydrocannabinol Concentration in urine ([2]; subject 1 (smoked marijuana prior to study), sodium azide added, 0-4 h): 29.0 ng THC E/ml | Tetrahydrocannabinol Concentration in urine ([2]; subject 1 (smoked marijuana prior to study), sodium azide added, 4-8 h): 70.0 ng THC E/ml | Tetrahydrocannabinol Concentration in urine ([2]; subject 1 (smoked marijuana prior to study), sodium azide added, 12-24 h): 72.5 ng THC E/ml | Tetrahydrocannabinol Concentration in urine ([2]; subject 1 (smoked marijuana prior to study), sodium azide added, 24-48 h): 41.5 ng THC E/ml | Tetrahydrocannabinol Concentration in urine ([2]; subject 1 (smoked marijuana prior to study), sodium azide added, 48-72 h): 40.0 ng THC E/ml | Tetrahydrocannabinol Concentration in urine ([2]; subject 1 (smoked marijuana prior to study), 0 h): 28.0 ng THC E/ml | Tetrahydrocannabinol Concentration in urine ([2]; subject 1 (smoked marijuana prior to study), 0-4 h): 45.0 ng THC E/ml | Tetrahydrocannabinol Concentration in urine ([2]; subject 1 (smoked marijuana prior to study), 4-8 h): 37.5 ng THC E/ml | Tetrahydrocannabinol Concentration in urine ([2]; subject 1 (smoked marijuana prior to study), 12-24 h): 45.0 ng THC E/ml | Tetrahydrocannabinol Concentration in urine ([2]; subject 1 (smoked marijuana prior to study), 24-48 h): 20.0 ng THC E/ml | Tetrahydrocannabinol Concentration in urine ([2]; subject 1 (smoked marijuana prior to study), 48-72 h): 27.5 ng THC E/ml | Tetrahydrocannabinol Concentration in urine ([2]; subject 2, sodium azide added, 0 h): 5.0 ng THC E/ml | Tetrahydrocannabinol Concentration in urine ([2]; subject 2, sodium azide added, 0-4 h): 11.0 ng THC E/ml | Tetrahydrocannabinol Concentration in urine ([2]; subject 2, sodium azide added, 4-8 h): 13.5 ng THC E/ml | Tetrahydrocannabinol Concentration in urine ([2]; subject 2, sodium azide added, 8-12 h): 7.5 ng THC E/ml | Tetrahydrocannabinol Concentration in urine ([2]; subject 2, sodium azide added, 12-24 h): 17.5 ng THC E/ml | Tetrahydrocannabinol Concentration in urine ([2]; subject 2, sodium azide added, 24-48 h): 7.5 ng THC E/ml | Tetrahydrocannabinol Concentration in urine ([2]; subject 2, sodium azide added, 48-72 h): 5.0 ng THC E/ml | Tetrahydrocannabinol Concentration in urine ([2]; subject 2, 0 h): 5.0 ng THC E/ml | Tetrahydrocannabinol Concentration in urine ([2]; subject 2, 0-4 h): 4.0 ng THC E/ml | Tetrahydrocannabinol Concentration in urine ([2]; subject 2, 4-8 h): 26.0 ng THC E/ml | Tetrahydrocannabinol Concentration in urine ([2]; subject 2, 8-12 h): 10.0 ng THC E/ml | Tetrahydrocannabinol Concentration in urine ([2]; subject 2, 12-24 h): 7.5 ng THC E/ml | Tetrahydrocannabinol Concentration in urine ([2]; subject 2, 24-48 h): 22.5 ng THC E/ml | Tetrahydrocannabinol Concentration in urine ([2]; subject 2, 48-72 h): 12.5 ng THC E/ml | excretion route of metabolites [3]: mainly via feces | extent of metabolism [3]: almost complete metabolism | DPM ([4]; 12.5 ng/ml THC): 13946 DPM | DPM ([4]; 25.0 ng/ml THC): 11964 DPM | DPM ([4]; 50.0 ng/ml THC): 11389 DPM | DPM ([4]; 100.0 ng/ml THC): 11342 DPM | DPM ([4]; 200.0 ng/ml THC): 10474 DPM

(6aR-trans)-N-[2-hydroxyphenyl)ethyl]-4-(6a,7,10,10a-Tetrahydro-6,6,9-trimethyl-3-pentyl-6H-dibenzo[b,d]pyran-1-oxy)butanamide [Δ^9 -Tetrahydrocannabinol Derivative]
binding properties retained ([5]; antigen reagent, at least six weeks): > 50% | binding of iodinated product, major peak ([5]; upon iodination, major peak, fractions #10 to #15): > 50% | binding of iodinated product, minor peak ([5]; upon iodination, minor peak, fractions #30 to #35): no binding

— patent publication US4438207A, “Radioimmunoassay for cannabinoids” (priority 1981, dated 1984)
